The results in this text go back to patent US20180251431A1 (VERTEX PHARMACEUTICALS INCORPORATED, priority 2016, published 2018).

This experiment deals with HEK293 cells. Description: HEK293 VLCFA-LPC IC50 determination (13C-labeled C26:0 LPC by UHPLC/MS). The experiment is classed as cell-based, human. The note with it: Homo sapiens, HEK293, HEK293 cells; average of one or more replicates; read-out: Average HEK293 IC50. In short, it runs like this:
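Suspension HEK293 cells (final 0.5 million/mL after mixing with equal volume) incubated 48 hours with compound plus 13C-acetate (1.0 mg/mL in added media), shaking at 37° C. Lipids extracted with hexane/isopropanol or methanol, C13:0 LPC standard. UHPLC/MS of 13C-labeled C26:0 LPC (638.500/104.100 m/z); IC50 by four-parameter fit.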

SMILES strings stand for the structures.

In the case of `O=C(Nc1ccn(-c2ccccc2)n1)C1(c2cc(F)ccc2F)CC1` [Compound 261, 1-(2,5-difluorophenyl)-N-(1-phenylpyrazol-3-yl)cyclopropanecarboxamide], the IC50 amounted to 160 nM.
In the case of `O=C(Nc1ccn(-c2ccnc(F)c2)n1)C1(c2ccc(Cl)cc2F)CC1` [Compound 262, 1-(4-chloro-2-fluoro-phenyl)-N-[1-(2-fluoro-4-pyridyl)pyrazol-3-yl]cyclopropanecarboxamide], the IC50 amounted to 300 nM.
As for `O=C(Nc1ccn(-c2ccccc2)n1)C1(c2ccc(Cl)cc2F)CC1` [Compound 263, 1-(4-chloro-2-fluoro-phenyl)-N-(1-phenylpyrazol-3-yl)cyclopropanecarboxamide], the figure is above 5000 nM; as for `O=C(Nc1ccn(-c2ccnc(F)c2)n1)C1(c2cc(Cl)ccc2F)CC1` [Compound 264, 1-(5-chloro-2-fluoro-phenyl)-N-[1-(2-fluoro-4-pyridyl)pyrazol-3-yl]cyclopropanecarboxamide], 190 nM; as for `O=C(Nc1ccn(-c2ccccc2)n1)C1(c2cc(Cl)ccc2F)CC1` [Compound 265, 1-(5-chloro-2-fluoro-phenyl)-N-(1-phenylpyrazol-3-yl)cyclopropanecarboxamide], 240 nM.
As for `O=C(Nc1ccn(-c2ccnc(F)c2)n1)C1(c2c(F)cccc2F)CC1` [Compound 266, 1-(2,6-difluorophenyl)-N-[1-(2-fluoro-4-pyridyl)pyrazol-3-yl]cyclopropanecarboxamide], the figure is 17 nM; as for `O=C(Nc1ccn(-c2ccccc2)n1)C1(c2c(F)cccc2F)CC1` [Compound 267, 1-(2,6-difluorophenyl)-N-(1-phenylpyrazol-3-yl)cyclopropanecarboxamide], 13 nM; as for `O=C(Nc1ccn(-c2ccnc(F)c2)n1)C1(c2cccc(F)c2F)CC1` [Compound 268, 1-(2,3-difluorophenyl)-N-[1-(2-fluoro-4-pyridyl)pyrazol-3-yl]cyclopropanecarboxamide], 140 nM.
As for `O=C(Nc1ccn(-c2ccccc2)n1)C1(c2cccc(F)c2F)CC1` [Compound 269, 1-(2,3-difluorophenyl)-N-(1-phenylpyrazol-3-yl)cyclopropanecarboxamide], the figure is 98 nM; as for `O=C(Nc1ccn(-c2ccnc(F)c2)n1)C1(c2cc(F)cc(F)c2)CC1` [Compound 270, 1-(3,5-difluorophenyl)-N-[1-(2-fluoro-4-pyridyl)pyrazol-3-yl]cyclopropanecarboxamide], 280 nM.
Consider `O=C(Nc1ccn(-c2ccccc2)n1)C1(c2cc(F)cc(F)c2)CC1` [Compound 271, 1-(3,5-difluorophenyl)-N-(1-phenylpyrazol-3-yl)cyclopropanecarboxamide], for which the IC50 was determined as 650 nM.
As for `Cc1ccc(F)c(C2(C(=O)Nc3ccn(-c4ccnc(F)c4)n3)CC2)c1Cl` [Compound 272, 1-(2-chloro-6-fluoro-3-methyl-phenyl)-N-[1-(2-fluoro-4-pyridyl)pyrazol-3-yl]cyclopropanecarboxamide], the figure is 460 nM.
As for `O=C(Nc1ccn(-c2ccnc(F)c2)n1)C1(c2c(F)cccc2Cl)CC1` [Compound 274, 1-(2-chloro-6-fluorophenyl)-N-(1-(2-fluoropyridin-4-yl)-1H-pyrazol-3-yl)cyclopropane-1-carboxamide], the figure is 37 nM; as for `O=C(Nc1ccn(-c2ccccc2)n1)C1(c2c(F)cccc2Cl)CC1` [Compound 275, 1-(2-chloro-6-fluoro-phenyl)-N-(1-phenylpyrazol-3-yl)cyclopropanecarboxamide], 50 nM.
Regarding `[2H]C1([2H])C([2H])([2H])C1(C(=O)Nc1ccn(-c2ccnc(F)c2)n1)c1ccccc1F` [Compound 276, 2,2,3,3-tetradeuterio-1-(2-fluorophenyl)-N-[1-(2-fluoro-4-pyridyl)pyrazol-3-yl]cyclopropanecarboxamide], the IC50 is 11 nM.
For the compound `O=C(Nc1ccn(-c2ccnc(F)c2)n1)C1(c2ncccc2F)CC1` [Compound 277, 1-(3-f1uoro-2-pyridyl)-N-[1-(2-fluoro-4-pyridyl)pyrazol-3-yl]cyclopropanecarboxamide], the IC50 was 120 nM.
As for `O=C(Nc1ccn(-c2ccncn2)n1)C1(c2ccncc2F)CC1` [Compound 278, 1-(3-fluoro-4-pyridyl)-N-(1-pyrimidin-4-ylpyrazol-3-yl)cyclopropanecarboxamide], the figure is above 5000 nM; as for `O=C(Nc1ccn(-c2ccncn2)n1)C1(c2ncccc2F)CC1` [Compound 279, 1-(3-fluoro-2-pyridyl)-N-(1-pyrimidin-4-ylpyrazol-3-yl)cyclopropanecarboxamide], 520 nM; as for `O=C(Nc1ccn(-c2ccccc2)n1)C1(c2ccncc2F)CC1` [Compound 280, 1-(3-fluoro-4-pyridyl)-N-(1-phenylpyrazol-3-yl)cyclopropanecarboxamide], 770 nM.
As for `O=C(Nc1ccn(-c2ccccc2)n1)C1(c2ncccc2F)CC1` [Compound 281, 1-(3-fluoro-2-pyridyl)-N-(1-phenylpyrazol-3-yl)cyclopropanecarboxamide], the figure is 58 nM; as for `Cc1ccnn1CC(=O)Nc1ccn(-c2ccnc(F)c2)n1` [Compound 282, N-[1-(2-fluoro-4-pyridyl)pyrazol-3-yl]-2-(5-methylpyrazol-1-yl)acetamide], above 2000 nM.
As to `O=C(Cn1cccn1)Nc1ccn(-c2ccnc(F)c2)n1` [Compound 283, N-[1-(2-fluoro-4-pyridyl)pyrazol-3-yl]-2-pyrazol-1-yl-acetamide], the IC50 was above 5000 nM.
As for `O=C(Nc1ccn(-c2ccnc(F)c2)n1)C1(c2ccc3c(c2)OC(F)(F)O3)CC1` [Compound 285, 1-(2,2-difluoro-1,3-benzodioxol-5-yl)-N-[1-(2-fluoro-4-pyridyl)pyrazol-3-yl]cyclopropanecarboxamide], the figure is 40 nM.
As for `O=C(Cn1ccnc1)Nc1ccn(-c2ccnc(F)c2)n1` [Compound 286, N-[1-(2-fluoro-4-pyridyl)pyrazol-3-yl]-2-imidazol-1-yl-acetamide], the IC50 was determined as 5000 nM.
As for `O=C(Cn1cccn1)Nc1ccn(-c2ccccc2)n1` [Compound 289, N-(1-phenylpyrazol-3-yl)-2-pyrazol-1-yl-acetamide], the figure is above 5000 nM.
Turning to `Cc1cnn(CC(=O)Nc2ccn(-c3ccccc3)n2)c1` [Compound 290, 2-(4-methylpyrazol-1-yl)-N-(1-phenylpyrazol-3-yl)acetamide], the IC50 is above 5000 nM.
As for `Cc1ccn(CC(=O)Nc2ccn(-c3ccccc3)n2)n1` [Compound 291, 2-(3-methylpyrazol-1-yl)-N-(1-phenylpyrazol-3-yl)acetamide], the figure is above 5000 nM.
Turning to `O=C(Nc1ccn(-c2ccccc2)n1)C1(c2ccc3c(c2)OC(F)(F)O3)CC1` [Compound 292, 1-(2,2-difluoro-1,3-benzodioxo1-5-yl)-N-(1-phenylpyrazol-3-yl)cyclopropanecarboxamide], the IC50 was 85 nM.
As for `O=C(Cc1ccsc1)Nc1ccn(-c2ccnc(F)c2)n1` [Compound 293, N-[1-(2-fluoro-4-pyridyl)pyrazol-3-yl]-2-(3-thienyl)acetamide], the figure is 980 nM.
Consider `CCC(C)(C(=O)Nc1ccn(-c2ccnc(F)c2)n1)c1ccccc1` (stereo not drawn) [Compound 294, N-[1-(2-fluoro-4-pyridyl)pyrazol-3-yl]-2-methyl-2-phenyl-butanamide], for which the IC50 is 390 nM.
As for `O=C(Cn1cccc1)Nc1ccn(-c2ccnc(F)c2)n1` [Compound 295, N-[1-(2-fluoro-4-pyridyl)pyrazol-3-yl]-2-pyrrol-1-yl-acetamide], the figure is above 5000 nM; as for `CC(C)(C(=O)Nc1ccn(-c2ccccc2)n1)c1ccccc1F` [Compound 296, 2-(2-fluorophenyl)-2-methyl-N-(1-phenylpyrazol-3-yl)propanamide], 1700 nM; as for `O=C(Cn1cccc1)Nc1ccn(-c2ccccc2)n1` [Compound 297, N-(1-phenylpyrazol-3-yl)-2-pyrrol-1-yl-acetamide], 1800 nM.
As for `O=C(Cn1nccn1)Nc1ccn(-c2ccccc2)n1` [Compound 298, N-(1-phenylpyrazol-3-yl)-2-(triazol-2-yl)acetamide], the figure is above 2000 nM; as for `O=C(Cn1nccn1)Nc1ccn(-c2ccnc(F)c2)n1` [Compound 299, N-[1-(2-fluoro-4-pyridyl)pyrazol-3-yl]-2-(triazol-2-yl)acetamide], 5000 nM.
For `CCC(C)(C(=O)Nc1ccn(-c2ccccc2)n1)c1ccccc1` (stereo not drawn) [Compound 300, 2-methyl-2-phenyl-N-(1-phenylpyrazol-3-yl)butanamide], the IC50 worked out at 560 nM.
As for `O=C(Nc1ccn(-c2cc(F)cc(F)c2)n1)C1(c2ccccc2F)CC1` [Compound 301, N-[1-(3,5-difluorophenyl)pyrazol-3-yl]-1-(2-fluorophenyl)cyclopropanecarboxamide], the figure is 140 nM; as for `Cn1ccnc1CC(=O)Nc1ccn(-c2ccnc(F)c2)n1` [Compound 302, N-[1-(2-fluoro-4-pyridyl)pyrazol-3-yl]-2-(1-methylimidazol-2-yl)acetamide], above 5000 nM.
Turning to `O=C(Cn1cncn1)Nc1ccn(-c2ccnc(F)c2)n1` [Compound 303, N-[1-(2-fluoro-4-pyridyl)pyrazol-3-yl]-2-(1,2,4-triazol-1-yl)acetamide], the IC50 was above 5000 nM.
As for `O=C(Cc1ccon1)Nc1ccn(-c2ccnc(F)c2)n1` [Compound 304, N-[1-(2-fluoro-4-pyridyl)pyrazol-3-yl]-2-isoxazol-3-yl-acetamide], the figure is above 5000 nM; as for `O=C(Cc1ccon1)Nc1ccn(-c2ccccc2)n1` [Compound 306, 2-isoxazol-3-yl-N-(1-phenylpyrazol-3-yl)acetamide], above 2000 nM; as for `O=C(Cc1nccs1)Nc1ccn(-c2ccnc(F)c2)n1` [Compound 307, N-[1-(2-fluoro-4-pyridyl)pyrazol-3-yl]-2-thiazol-2-yl-acetamide], above 2000 nM.
